The subject of test [1] is THP1 cells (LPS-induced TNF-α secretion). The test is described as follows: Lipopolysaccharide-activated THP1 cell TNF production assay. The test is classed as cell-based. The following applies: Homo sapiens, THP-1. On the procedure:
Lipopolysaccharide-Activated THP1 Cell TNF Production Assay
THP1 cells are resuspended in fresh THP1 media (RPMI 1640, 10% heat-inactivated FBS, 1XPGS, 1XNEAA, plus 30 μM βME) at a concentration of 1E6/mL. One hundred microliters of cells per well are plated in a polystyrene 96-well tissue culture. One microgram per mL of bacterial LPS is prepared in THP1 media and is transferred to the wells. Test compounds are dissolved in 100% DMSO and are serially diluted 3-fold in a polypropylene 96-well microtiter plate (drug plate). HI control and LO control wells contain only DMSO. One microliter of test compound from the drug plate followed by 10 μL of LPS are transferred to the cell plate. The treated cells are induced to synthesize and secrete TNF-α at 37° C. for 3 h. Forty microliters of conditioned media are transferred to a 96-well polypropylene plate containing 110 μL of ECL buffer (50 mM Tris-HCl pH 8.0, 100 mM NaCl, 0.05% Tween 20, 0.05% NaN3 and 1% FBS) supplemented with 0.44 nM MAB610 monoclonal Ab (R&D Systems), 0.34 nM ruthenylated AF210NA polyclonal Ab (R&D Systems) and 44 μg/mL sheep anti-mouse M280 Dynabeads (Dynal). After a 2 h incubation at room temperature with shaking, the reaction is read on the ECL M8 Instrument (IGEN Inc.). A low voltage is applied to the ruthenylated TNF-α immune complexes, which in the presence of TPA (the active component in Origlo), results in a cyclical redox reaction generating light at […]. The amount of secreted TNF-α in the presence of compound compared with that in the presence of DMSO vehicle alone (HI control) is calculated using the formula: % control (POC)=(cpd−average LO)/(average HI−average LO)*100. Data (consisting of POC and inhibitor concentration in μM) is fitted to a 4-parameter equation (y=A+((B−A)/(1+((x/C)^D))), where A is the minimum y (POC) value, B is the maximum y (POC), C is the x (cpd concentration) at the point of inflection and D is the slope factor) using a Levenburg-Marquardt non-linear regression algorithm.

Test [2] has as its system production of TNF by monocytes activated with bacterial lipopolysaccharide (LPS). Kind of test: Lipopolysaccharide-activated monocyte TNF production assay (whole blood monocyte assay, LPS induced TNF release). The following applies: Homo sapiens. The test is classed as cell-based. On the procedure:
Lipopolysaccharide-Activated Monocyte TNF Production Assay
Test compounds were evaluated in vitro for the ability to inhibit the production of TNF by monocytes activated with bacterial lipopolysaccharide (LPS). Fresh residual source leukocytes (a byproduct of plateletpheresis) were obtained from a local blood bank, and peripheral blood mononuclear cells (PBMCs) were isolated by density gradient centrifugation on Ficol-Paque Plus (Pharmacia). PBMCs were suspended at 2×10^6/mL in DMEM supplemented to contain 2% FCS, 10 mM, 0.3 mg/mL […], 100 U/mL penicillin G and […] streptomycin sulfate (complete media). Cells were plated into Falcon flat bottom, 96 well culture plates (200 μL/well) and cultured overnight at 37° C. and 6% CO2. Non-adherent cells were removed by washing with 200 μl/well of fresh medium. Wells containing adherent cells (˜70% monocytes) were replenished with 100 μL of fresh medium.
Preparation of Test Compound Stock Solutions
Test compounds were dissolved in […]. Compound stock solutions were prepared to an initial concentration of […]. Stocks were diluted initially to 20-200 μM in complete media. Nine two-fold serial dilutions of each compound were then prepared in complete medium.
Treatment of Cells with Test Compounds and Activation of TNF Production with Lipopolysaccharide
One hundred microliters of each test compound dilution were added to microtiter wells containing adherent monocytes and 100 μL complete medium. Monocytes were cultured with test compounds for 60 min at which time 25 μL of complete medium containing 30 ng/mL lipopolysaccharide from E. coli K532 were added to each well. Cells were cultured an additional 4 hrs. Culture supernatants were then removed and TNF presence in the supernatants was quantified using an ELISA.
Flat bottom, 96 well Corning High Binding ELISA plates were coated overnight (4° C.) with 150 μL/well of 3 μg/mL murine anti-human TNF-α MAb (R&D Systems #MAB210). Wells were then blocked for 1 h at room temperature with 200 μL/well of CaCl2-free ELISA buffer supplemented to contain 20 mg/mL BSA (standard ELISA buffer: […], 150 mM NaCl, 2 mM CaCl2, 0.15 mM thimerosal, pH 7.4). Plates were washed and replenished with 100 μL of test supernatants (diluted 1:3) or standards. Standards consisted of eleven 1.5-fold serial dilutions from a stock of 1 ng/mL recombinant human TNF (R&D Systems). Plates were incubated at room temperature for 1 h on orbital shaker (300 rpm), washed and replenished with 100 μL/well of 0.5 μg/mL goat anti-human TNF-α (R&D systems #AB-210-NA) biotinylated at a 4:1 ratio. Plates were incubated for 40 min, washed and replenished with 100 μL/well of alkaline phosphatase-conjugated streptavidin (Jackson ImmunoResearch #016-050-084) at 0.02 μg/mL. Plates were incubated 30 min, washed and replenished with 200 μL/well of 1 mg/mL of p-nitrophenyl phosphate. After 30 min, plates were read at 405 nm on a Vmax plate reader.

Test [3] can be described thus: AA5225_IC50_IP (Table 4, assay code not explained). The following applies: internal assay code.
Test [4] is described as follows: AA2734_IC50_IP (Table 4, assay code not explained). The settings on record: internal assay code.

Some results are limits rather than exact numbers.

By IC50 is commonly meant the concentration that inhibits the measured activity by half.

In test [1], `Cc1ccc(C(=O)Nc2ccnn2C)cc1-c1ccc2c(OCC(F)(F)F)nncc2c1` [Example 2, 4-Methyl-N-(1-methyl-1H-pyrazol-5-yl)-3-(1-(2,2,2-trifluoroethoxy)phthalazin-6-yl)benzamide] returned an IC50 of no more than 0.01 µM. Consider `CCn1nccc1NC(=O)c1ccc(C)c(-c2ccc3c(NC(C)C)nncc3c2)c1` [Example 3, N-(1-Ethyl-1H-pyrazol-5-yl)-3-(1-(isopropylamino)phthalazin-6-yl)-4-methylbenzamide], for which the IC50 in test [2] and in test [1] was no more than 0.01 µM in each case. Turning to `Cc1ccc(C(=O)Nc2ccnn2C)cc1-c1ccc2c(-c3ccccc3C)nncc2c1` [Example 5, 4-methyl-N-(1-methyl-1H-pyrazol-5-yl)-3-(1-o-tolylphthalazin-6-yl)benzamide], the IC50 in test [2] and in test [1] was no more than 0.01 µM in each case. As to `Cc1ccc(C(=O)Nc2ccon2)cc1-c1ccc2c(NC(C)C)nncc2c1` [Example 13, N-3-isoxazolyl-4-methyl-3-(1-((1-methylethyl)amino)-6-phthalazinyl)benzamide], the IC50 in test [2] is no more than 0.01 µM.

`Cc1ccc(C(=O)Nc2ccnn2C)cc1-c1ccc2c(N3CCOC[C@@H]3C)nncc2c1` [Example 15, 4-methyl-3-(1-((3S)-3-methyl-4-morpholinyl)-6-phthalazinyl)-N-(1-methyl-1H-pyrazol-5-yl)benzamide] displayed an IC50 in test [2] of no more than 0.01 µM. The molecule `CC(C)Nc1nncc2cc(-c3cc(C(=O)NC4CC4)ccc3Cl)ccc12` [Example 23, 4-chloro-N-cyclopropyl-3-(1-((1-methylethyl)amino)-6-phthalazinyl)benzamide] came in with an IC50 in test [1] of no more than 0.01 µM. In turn, `CC(C)Oc1nncc2cc(-c3cc(C(N)=O)ccc3Cl)ccc12` [Example 25, 4-chloro-3-(1-((1-methylethyl)oxy)-6-phthalazinyl)benzamide] gave an IC50 in test [1] of no more than 0.01 µM. `Cc1ccc(C(=O)NCC(F)(F)F)cc1-c1ccc2c(NC(C)C)nncc2c1` [Example 29, 4-methyl-3-(1-((1-methylethyl)amino)-6-phthalazinyl)-N-(2,2,2-trifluoroethyl)benzamide] gave an IC50 in test [2] of no more than 0.01 µM. On to `Cc1ccc(C(N)=O)cc1-c1ccc2c(N3CCC[C@H]3C(C)(C)C)nncc2c1` [Example 35, 3-(1-((2S)-2-(1,1-dimethylethyl)-1-pyrrolidinyl)-6-phthalazinyl)-4-methylbenzamide], for which the IC50 in test [2] was no more than 0.01 µM. Take `Cc1ccc(C(=O)NC(C)C)cc1-c1ccc2c(N3CCC[C@H]3C)nncc2c1` [Example 37, 4-methyl-N-(1-methylethyl)-3-(1-((2R)-2-methyl-1-pyrrolidinyl)-6-phthalazinyl)benzamide]: the IC50 in test [2] is no more than 0.01 µM.

`Cc1ccc(C(=O)NC(C)C)cc1-c1ccc2c(C(C)C)nncc2c1` [Example 39, 4-methyl-N-(1-methylethyl)-3-(1-(1-methylethyl)-6-phthalazinyl)benzamide] showed an IC50 in test [2] of no more than 0.01 µM. Regarding `Cc1ccc(C(=O)NC(C)C)cc1-c1ccc2c(O[C@H](C)C(F)(F)F)nncc2c1` [Example 41, 4-methyl-N-(1-methylethyl)-3-(1-(((1R)-2,2,2-trifluoro-1-methylethyl)oxy)-6-phthalazinyl)benzamide], the IC50 in test [2] is no more than 0.1 µM. In test [2], `Cc1ccc(C(N)=O)cc1-c1ccc2c(O[C@H](C)C(F)(F)F)nncc2c1` [Example 43, 4-methyl-3-(1-(((1R)-2,2,2-trifluoro-1-methylethyl)oxy)-6-phthalazinyl)benzamide] came in with an IC50 of no more than 0.1 µM. As to `Cc1ccc(C(=O)NC2CC2)cc1-c1ccc2c(OC(CF)CF)nncc2c1` [Example 49, N-cyclopropyl-3-(1-((2-fluoro-1-(fluoromethyl)ethyl)oxy)-6-phthalazinyl)-4-methylbenzamide], in test [1], the IC50 was no more than 0.1 µM. Molecule `CCC(C)c1nncc2cc(-c3cc(C(N)=O)ccc3C)ccc12` (centres unmarked) [Example 51, 4-methyl-3-(1-(1-methylpropyl)-6-phthalazinyl)benzamide] yielded an IC50 in test [2] of no more than 0.01 µM. Turning to `Cc1ccc(C(=O)NC2(C)CC2)cc1-c1ccc2c(N3CCC[C@@H]3C)nncc2c1` [Example 66, 4-methyl-N-(1-methylcyclopropyl)-3-(1-((2S)-2-methyl-1-pyrrolidinyl)-6-phthalazinyl)benzamide], the IC50 in test [2] is no more than 0.01 µM.

Consider `Cc1ccc(C(=O)Nc2ccn(C)n2)cc1-c1ccc2c(O[C@@H](C)C(F)(F)F)nncc2c1` [Example 72, 4-methyl-N-(1-methyl-1H-pyrazol-3-yl)-3-(1-(((1S)-2,2,2-trifluoro-1-methylethyl)oxy)-6-phthalazinyl)benzamide], for which the IC50 in test [2] was no more than 0.01 µM. Take `Cc1ccc(C(=O)NC2CC2)cc1-c1ccc2c(-c3cc(F)c(S(C)(=O)=O)cc3C)nncc2c1` [Example 223, N-cyclopropyl-3-(1-(5-fluoro-2-methyl-4-(methylsulfonyl)phenyl)-6-phthalazinyl)-4-methylbenzamide]: the values for the IC50 in test [2], in test [3] and in test [4] were no more than 0.01 µM, 0.000854 µM and 0.00122 µM, respectively. For `Cc1ccc(C(=O)NC2CC2)cc1-c1ccc2c([C@H](C)C(F)(F)F)nncc2c1` [Example 227b, N-cyclopropyl-4-methyl-3-(1-((1S)-2,2,2-trifluoro-1-methylethyl)-6-phthalazinyl)benzamide], the IC50 in test [2] was no more than 0.01 µM; in test [3], 0.00161 µM; in test [4], 0.00033 µM. In test [2], `Cc1ccc(N)cc1-c1ccc2c(O[C@H](C)C(F)(F)F)nncc2c1` [Example 238, 4-methyl-3-(1-(((1R)-2,2,2-trifluoro-1-methylethyl)oxy)-6-phthalazinyl)aniline] showed an IC50 of no more than 0.25 µM.

The values are drawn from patent publication US8101612B2, “Phthalazine compounds and methods of use” (Amgen Inc., priority 2006, dated 2012).
